Measured values published in PMC6941357, “An in vitro toolbox to accelerate anti-malarial drug discovery and development” (Malaria Journal, 2020).

How the values were obtained:
[1] = In vitro metabolism (metabolic stability) in human liver microsomes; conditions: human
Summary of the method: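 Compound depletion in human liver microsomes was followed by LC–MS at 2–60 min, with cofactor-free controls. First-order depletion rate constants gave in vitro CLint (µL/min/mg protein), corrected to unbound CLint using measured microsomal fu.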

[2] = Plasma protein binding via ultracentrifugation (UC); type: in vitro ADME, human; conditions: pH 7.4
Summary of the method: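 Pooled human plasma (3–4 donors) spiked and ultracentrifuged; protein-free supernate gave Cunbound, parallel tubes kept at 37 °C gave Ctotal and stability (start vs end). Samples matrix-matched 1:1 with opposite blank and quantified against a common calibration curve; fu SD by error propagation.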

[3] = biological target: CYP3A4 (Homo sapiens, UniProt P08684); assay: Cytochrome P450 inhibition in human liver microsomes; conditions: for IC50: highest concentration tested 20 µM; for inhibition at 20 µM: human; for inhibition at 20 µM / CYP3A4 (midaz) % inhibition at max conc / CYP3A4 (test) % inhibition at max conc: microsomes
Summary of the method: (§1)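 LC–MS measurement of the metabolite formed by one CYP isoform from its probe substrate in human liver microsomes, with and without test compound, provided the data. Values are percent inhibition of that metabolic pathway.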

[4] = biological target: CYP2C9 (Homo sapiens, UniProt P11712); assay: as above; conditions: for inhibition at 20 µM: human, pH 7.4
Summary of the method: as §1

[5] = biological target: CYP2D6 (Homo sapiens, UniProt P10635); assay: as above; conditions: for CYP2D6 % inhibition at max conc / inhibition at 20 µM: microsomes; for inhibition at 20 µM: human, pH 7.4
Summary of the method: as §1

[6] = biological target: CYP2C19 (Homo sapiens, UniProt P33261); assay: as above; conditions: for inhibition at 20 µM: human, pH 7.4
Summary of the method: as §1

[7] = Octanol/pH 7.4 buffer partition coefficient, shake flask; conditions: pH 7.4
Summary of the method: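 Octanol stocks (3-30 mg/mL) were diluted 3- and 10-fold and shaken with equal volumes of pH 7.4 phosphate buffer (67 mM, in 43 mM NaCl) at 37 °C. Both phases were quantified by LC-MS against calibration standards. The coefficient is the mean octanol/buffer concentration ratio, with two time points confirming equilibrium.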

[8] = Binding to human liver microsomes via ultracentrifugation; type: in vitro ADME; conditions: human, read-out: Fraction unbound, HLM
Summary of the method: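 Unbound fraction by ultracentrifugation: Cunbound measured in protein-free supernate, Ctotal from spiked tubes held at 37 °C, sampled at start and end to check degradation. Matrix was 0.4 mg/mL human liver microsomal protein, 0.1 M phosphate pH 7.4; matrix-matched analysis against one calibration curve.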

[9] = liver microsomes, pH 7.4, HLM CLint, human liver microsomes, average of n = 2 replicates, < 7 means < 15% loss over 60 min
[10] = human, neat pooled plasma, ultracentrifugation, neat plasma, read-out: Fraction unbound, human plasma
[11] = CYP3A4 (midaz) IC50, human liver microsomes, CYP3A4 (midaz)
[12] = CYP3A4 (test) IC50, human liver microsomes, CYP3A4 (test)
[13] = pH 7.4, CYP3A4 (midaz) % inhibition at max conc
[14] = pH 7.4, CYP3A4 (test) % inhibition at max conc
[15] = liver microsomes, pH 7.4, 0.4 mg/mL protein
[16] = human plasma, fraction unbound, read-out: Plasma fu
[17] = octanol/pH 7.4 phosphate buffered saline
[18] = human liver microsomes, at max conc, nmi = no measurable inhibition
[19] = microsomes, pH 7.4, 0.4 mg/mL protein

Sequence of CYP3A4 (P08684 whole entry, canonical isoform): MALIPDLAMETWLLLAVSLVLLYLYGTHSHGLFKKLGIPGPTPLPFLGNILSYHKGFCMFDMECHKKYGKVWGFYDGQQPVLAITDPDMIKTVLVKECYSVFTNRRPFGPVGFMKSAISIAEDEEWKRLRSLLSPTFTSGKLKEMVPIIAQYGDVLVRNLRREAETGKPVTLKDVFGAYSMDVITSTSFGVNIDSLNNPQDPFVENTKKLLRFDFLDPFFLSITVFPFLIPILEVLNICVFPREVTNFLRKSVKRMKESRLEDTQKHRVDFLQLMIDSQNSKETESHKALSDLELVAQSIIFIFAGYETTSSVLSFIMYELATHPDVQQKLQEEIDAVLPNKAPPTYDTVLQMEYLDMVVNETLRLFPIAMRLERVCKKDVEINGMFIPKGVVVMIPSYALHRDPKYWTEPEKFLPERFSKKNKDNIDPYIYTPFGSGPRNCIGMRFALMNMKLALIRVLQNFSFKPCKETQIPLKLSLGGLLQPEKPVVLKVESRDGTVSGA
Sequence of CYP2D6 (P10635 whole entry): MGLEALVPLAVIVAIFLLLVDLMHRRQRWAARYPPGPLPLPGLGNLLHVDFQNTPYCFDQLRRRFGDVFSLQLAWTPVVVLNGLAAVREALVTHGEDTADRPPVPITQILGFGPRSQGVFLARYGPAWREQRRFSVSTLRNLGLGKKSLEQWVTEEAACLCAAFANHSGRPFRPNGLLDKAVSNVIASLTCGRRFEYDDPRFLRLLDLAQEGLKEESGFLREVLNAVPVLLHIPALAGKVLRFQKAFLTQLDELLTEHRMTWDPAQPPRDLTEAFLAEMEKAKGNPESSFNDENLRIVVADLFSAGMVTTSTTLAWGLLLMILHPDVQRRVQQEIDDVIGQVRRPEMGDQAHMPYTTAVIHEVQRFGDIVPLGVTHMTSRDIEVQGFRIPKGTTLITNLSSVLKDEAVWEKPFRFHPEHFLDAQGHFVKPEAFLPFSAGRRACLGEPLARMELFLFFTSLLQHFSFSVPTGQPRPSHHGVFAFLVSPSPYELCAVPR
Sequence of CYP2C19 (P33261 whole entry): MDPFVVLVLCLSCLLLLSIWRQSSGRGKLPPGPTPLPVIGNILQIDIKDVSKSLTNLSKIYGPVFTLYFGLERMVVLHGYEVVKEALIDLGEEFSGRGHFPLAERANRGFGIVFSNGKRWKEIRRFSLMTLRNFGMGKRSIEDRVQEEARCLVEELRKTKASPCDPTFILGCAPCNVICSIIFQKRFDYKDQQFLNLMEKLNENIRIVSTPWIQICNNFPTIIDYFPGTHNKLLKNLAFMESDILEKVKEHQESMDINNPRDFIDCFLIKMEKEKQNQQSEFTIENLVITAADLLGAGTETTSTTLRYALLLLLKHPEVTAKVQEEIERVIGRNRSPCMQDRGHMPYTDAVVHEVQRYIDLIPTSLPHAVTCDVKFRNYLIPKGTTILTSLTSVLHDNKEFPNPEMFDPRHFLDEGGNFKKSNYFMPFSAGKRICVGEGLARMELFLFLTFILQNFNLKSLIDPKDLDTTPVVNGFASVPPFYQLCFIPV
Sequence of CYP2C9 (P11712 whole entry): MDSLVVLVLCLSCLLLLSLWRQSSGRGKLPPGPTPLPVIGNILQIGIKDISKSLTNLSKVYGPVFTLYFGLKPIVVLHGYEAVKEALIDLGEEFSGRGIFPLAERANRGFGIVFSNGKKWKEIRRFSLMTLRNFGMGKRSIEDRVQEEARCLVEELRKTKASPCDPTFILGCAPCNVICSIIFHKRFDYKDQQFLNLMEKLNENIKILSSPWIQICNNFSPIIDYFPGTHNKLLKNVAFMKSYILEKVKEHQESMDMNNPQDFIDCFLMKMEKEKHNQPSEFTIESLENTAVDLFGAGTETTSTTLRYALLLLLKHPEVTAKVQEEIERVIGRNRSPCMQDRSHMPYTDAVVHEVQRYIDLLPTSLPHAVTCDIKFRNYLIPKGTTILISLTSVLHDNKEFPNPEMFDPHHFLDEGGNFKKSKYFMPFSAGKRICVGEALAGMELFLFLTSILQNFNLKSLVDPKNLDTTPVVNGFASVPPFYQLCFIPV

SMILES | microsomal CLint at 1 µM [1, 9] [µL/min/mg] | fraction unbound at […] [2, 10] | IC50 [3, 12] [µM] | inhibition at 20 µM [3, 14] [%] | IC50 [4] [µM] | CYP2C9 % inhibition at max conc ([4]; microsomes) | IC50 [5] [µM] | IC50 [6] [µM] | CYP2C19 % inhibition at max conc ([6]; microsomes) | logD ([7]; octanol/pH 7.4 buffer) | fraction unbound at […] [8, 15] | CYP3A4 (midaz) % inhibition at max conc [3] | further results
CO[C@H]1O[C@@H]2O[C@@]3(C)CC[C@H]4[C@H](C)CC[C@@H]([C@H]1C)[C@@]24OO3 [Artemether] | 163 | 0.1 | > 20 | 37 | > 20 | nmi | > 20 | > 20 | nmi | 3.7 | 0.5 ± 0.052 |  | IC50 [3, 11]: > 20 µM; inhibition at 20 µM [3, 13]: 39%; CYP2D6 % inhibition at max conc [5]: nmi
C[C@H]1[C@H](N2CCS(=O)(=O)CC2)O[C@@H]2O[C@@]3(C)CC[C@H]4[C@H](C)CC[C@@H]1[C@@]24OO3 [Artemisone] | 97.7 | 0.12 ± 0.006 |  |  |  |  |  |  |  | 2.82 | 0.44 ± 0.024 |  | 
O=C1C(O)=C([C@H]2CC[C@H](c3ccc(Cl)cc3)CC2)C(=O)c2ccccc21 [Atovaquone] | < 7 | 0.002 |  |  | > 20 |  | > 20 | > 20 | nmi | 5.3 | ~0.002 | nmi | CYP3A4 (test) % inhibition at max conc [3]: nmi; inhibition at 20 µM ([4]; microsomes): 26%; CYP2D6 % inhibition at max conc [5]: nmi
CC[C@H]1OC(=O)[C@H](C)[C@@H](O[C@H]2C[C@@](C)(OC)[C@@H](O)[C@H](C)O2)[C@H](C)[C@@H](O[C@@H]2O[C@H](C)C[C@H](N(C)C)[C@H]2O)[C@](C)(O)C[C@@H](C)CN(C)[C@H](C)[C@@H](O)[C@]1(C)O [Azithromycin] | < 7 | 0.71 |  |  | > 20 | nmi | > 20 | > 20 |  | 1.1 | 0.7 ± 0.06 |  | CYP2D6 % inhibition at max conc [5]: nmi; inhibition at 20 µM ([6]; microsomes): 29%
CC(C)NC(=N)NC(=N)Nc1ccc(Cl)c(Cl)c1 [Chlorproguanil] | < 7 | 0.1 ± 0.007 | > 20 | 41 | > 20 | nmi | 1.4 | > 20 |  | 1.1 | 0.052 ± 0.004 | nmi | IC50 [3, 11]: > 20 µM; Ki [5]: 0.87 µM; inhibition at 20 µM ([6]; microsomes): 39%
C[C@H]1[C@@H](O)O[C@@H]2O[C@@]3(C)CC[C@H]4[C@H](C)CC[C@@H]1[C@@]24OO3 [Dihydroartemisinin] | 16.6 |  | > 20 |  | > 20 | nmi | > 20 | > 20 | nmi | 2.3 |  | nmi | fraction unbound at […] ([2]; human, pooled plasma, ultracentrifugation, instability evident, estimate only, read-out: Fraction unbound, human plasma): 0.21 ± 0.01; fraction unbound at […] [2, 16]: 0.21; IC50 [3, 11]: > 20 µM; CYP3A4 (test) % inhibition at max conc [3]: nmi; CYP2D6 % inhibition at max conc [5]: nmi; logD [7, 17]: 2.3; fraction unbound at […] ([8]; liver microsomes, pH 7.4, instability evident, estimate only): 0.87 ± 0.1
CCCCN(CCCC)CCC(O)c1cc2c(Cl)cc(Cl)cc2c2cc(C(F)(F)F)ccc12 (centres unmarked) [Halofantrine] |  | 0.13 |  |  | > 20 |  | 0.27 | > 20 |  |  | 0.002 ± 0.0002 |  | microsomal CLint at 1 µM ([1]; microsomes, pH 7.4, HLM CLint): 26.9 µL/min/mg; inhibition at 20 µM ([3]; pH 7.4, CYP3A4 (midaz) % inhibition at max conc, human liver microsomes, CYP3A4 (midaz), at max conc, nmi = no measurable inhibition): 24%; inhibition at 20 µM ([3]; pH 7.4, CYP3A4 (test) % inhibition at max conc, human liver microsomes, CYP3A4 (test), at max conc, nmi = no measurable inhibition): 19%; CYP2C9 % inhibition at max conc [4, 18]: nmi; Ki [5]: 0.19 µM; CYP2C19 % inhibition at max conc [6, 18]: nmi
C[C@H]1Cc2c([nH]c3cc(Cl)c(F)cc23)[C@@]2(N1)C(=O)Nc1ccc(Cl)cc12 [KAE609] | 24.1 | 0.057 | > 20 | 30 | 5.5 |  | 5.9 | < 0.25 |  |  | 0.019 ± 0.001 | nmi | IC50 [3, 11]: > 20 µM; Ki [4]: 4 µM; Ki [5]: 3.7 µM; Ki [6]: < 0.15 µM
CC1(C)c2nc(-c3ccc(F)cc3)c(Nc3ccc(F)cc3)n2CCN1C(=O)CN [KAF156] | 14.7 | 0.11 |  |  |  |  |  |  |  | 2.06 | 0.14 ± 0.006 |  | inhibition at 20 µM ([6]; microsomes): 40%
CS(=O)(=O)c1ccc(-c2cnc(N)c(-c3ccc(C(F)(F)F)nc3)c2)cc1 [MMV048] | < 7 | 0.17 | > 20 |  | > 20 | nmi | > 20 | > 20 | nmi | 2.5 | 0.61 ± 0.014 |  | CYP3A4 (test) % inhibition at max conc [3]: nmi; inhibition at 20 µM [5]: 16%
Cc1nc(Nc2ncc(N3CCN(C)[C@H](C)C3)c(Nc3cc(C)n(C)n3)n2)cc(C2CC2)c1F [MMV253] | 13.2 | 0.067 | > 20 | 37 | > 20 | nmi | > 20 |  |  | 4.42 | 0.11 ± 0.017 |  | inhibition at 20 µM [5]: 35%
OC(c1cc(C(F)(F)F)nc2c(C(F)(F)F)cccc12)C1CCCCN1 (centres unmarked) [Mefloquine] |  | 0.058 |  | 29 |  | nmi |  |  |  | 2.7 | 0.05 ± 0.006 | nmi | microsomal CLint at 1 µM ([1]; microsomes, pH 7.4, HLM CLint): < 7 µL/min/mg
CC(C)(N)CNC(=O)C[C@H]1CC[C@]2(CC1)OO[C@]1(O2)C2CC3CC(C2)CC1C3 [OZ277, Arterolane] |  | 0.086 ± 0.008 | > 20 | 46 | > 20 |  | > 20 | > 20 |  | 2.6 |  |  | microsomal CLint at 1 µM ([1]; microsomes, pH 7.4, HLM CLint): < 7 µL/min/mg; fraction unbound at […] [2, 16]: 0.086; IC50 [3, 11]: > 20 µM; inhibition at 20 µM [3, 13]: 26%; logD [7, 17]: 2.6; fraction unbound at […] [8, 19]: 0.044 ± 0.005
COc1cc(NC(C)CCCN)c2ncccc2c1 (centres unmarked) [Primaquine] |  |  |  |  |  |  |  |  |  |  |  |  | microsomal CLint at 1 µM ([1]; microsomes, pH 7.4): 7.7 µL/min/mg; fraction unbound at […] ([2]; human, ultracentrifugation, neat plasma, read-out: Fraction unbound, human plasma): 0.26 ± 0.023; inhibition at 20 µM [3, 13]: 31%; CYP3A4 (test) % inhibition at max conc [3]: nmi; inhibition at 20 µM ([4]; microsomes): 20%; inhibition at 20 µM [5]: 33%; inhibition at 20 µM ([6]; microsomes): 34%; Log D7.4 [7]: 0.54; logD [7]: 0.54; fraction unbound at […] [8, 19]: 0.56 ± 0.05
[H]/N=C(\N/C(=N/[H])Nc1ccc(Cl)cc1)NC(C)C [Proguanil] | < 7 | 0.34 ± 0.01 |  | 24 | > 20 | nmi | 3.5 | > 20 |  | 0.27 | 0.33 ± 0.014 | nmi | Ki [5]: 2.2 µM; inhibition at 20 µM ([6]; microsomes): 27%
CCc1nc(N)nc(N)c1-c1ccc(Cl)cc1 [Pyrimethamine] | < 7 | 0.085 |  |  |  | nmi | > 20 |  | nmi | 2.41 | 0.54 ± 0.097 |  | inhibition at 20 µM [5]: 36%
COc1ncnc(NS(=O)(=O)c2ccc(N)cc2)c1OC [Sulfadoxine] | < 7 | 0.036 ± 0.001 |  |  | > 20 | nmi | > 20 | > 20 | nmi |  | 0.93 ± 0.086 | nmi | CYP3A4 (test) % inhibition at max conc [3]: nmi; CYP2D6 % inhibition at max conc [5]: nmi
